Measurements as given in patent US20240218022A1, “ANTI-VISTA MACROCYCLIC PEPTIDES AND COMPOSITIONS” (BRISTOL-MYERS SQUIBB COMPANY, priority 2022, published 2024).
Positions of bridges follow the written chain, without caps; N, C: chain ends. Non-standard residues stand in square brackets, D forms with d. Residues, ends and D or L forms follow the SMILES beside them. *: point of attachment. Phe(3,4,5-F3) = N[C@@H](Cc1cc(F)c(F)c(F)c1)C(=O)O; Phe(3,4-(OMe)2) = COc1ccc(C[C@H](N)C(=O)O)cc1OC; Phe(4-CF3) = N[C@@H](Cc1ccc(C(F)(F)F)cc1)C(=O)O; Phe(4-NH2) = Nc1ccc(C[C@H](N)C(=O)O)cc1; Phe(4-F) = N[C@@H](Cc1ccc(F)cc1)C(=O)O; Ahp(2) = CCCCC[C@H](N)C(=O)O; NHexGly = CCCCCCNCC(=O)O; Nle = CCCC[C@H](N)C(=O)O; Allyl = C=CC*

The molecules below were run against T1, mouse VISTA (mVISTA) (Mus musculus, UniProt Q9D659) (assay: Cell-Based Binding High-Content Assay For mVISTA (HC CBA mVISTA)). Conditions: the 20th table, scaffold drawing 23; read-out: HC CBA mVISTA IC50.
T1 construct: expressed in transfected cells; host or cells: Human embryonic kidney 293T cells
T1 sequence (Q9D659 33-308): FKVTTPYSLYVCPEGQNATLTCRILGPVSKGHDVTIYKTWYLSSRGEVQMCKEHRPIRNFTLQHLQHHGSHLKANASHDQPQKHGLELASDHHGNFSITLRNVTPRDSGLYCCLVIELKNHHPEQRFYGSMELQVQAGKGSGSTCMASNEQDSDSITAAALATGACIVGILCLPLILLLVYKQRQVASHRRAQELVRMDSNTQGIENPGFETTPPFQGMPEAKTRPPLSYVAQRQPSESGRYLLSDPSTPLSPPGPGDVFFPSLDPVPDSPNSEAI
Outline: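 mVISTA-293T, 4,000 cells/well; cpd ± washout step; biotin-peptide 2 nM final, 30 min RT; SA-Alexa 647 30 min; formaldehyde/Hoechst fix; HCS imaging; 4PL IC50.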

Row | SMILES | IC50 [nM]
1 | CCCCCCN1CC(=O)N[C@@H](Cc2ccc(O)cc2)C(=O)N[C@@H](CCCC)C(=O)NCC(=O)N[C@@H](CCCNC(=N)N)C(=O)N[C@@H](CC(C)C)C(=O)N[C@@H](CCCCC)C(=O)N2CCC[C@H]2C(=O)N[C@@H](C(C)C)C(=O)N[C@@H](CC(=O)O)C(=O)N[C@H](C(=O)NCC(=O)O)CSCC(=O)N[C@@H](Cc2ccc(OC)c(OC)c2)C(=O)N[C@@H](Cc2ccc(O)cc2)C(=O)N[C@@H](CC(=O)O)C1=O [compound 1458] ({CH2CO}-[Phe(3,4-(OMe)2)]YD[NHexGly]Y[Nle]GRL[Ahp(2)]PVDCG-OH; thioether N-14) | 33.8
2 | CCCCCCN1CC(=O)N[C@@H](Cc2ccc(O)cc2)C(=O)N[C@@H](CCCC)C(=O)N[C@@H](CC(N)=O)C(=O)N[C@@H](CCCNC(=N)N)C(=O)N[C@@H](CC(C)C)C(=O)N[C@@H](CCCCC)C(=O)N2CCC[C@H]2C(=O)N[C@@H](C(C)C)C(=O)N[C@@H](CC(=O)O)C(=O)N[C@H](C(=O)NCC(=O)O)CSCC(=O)N[C@@H](Cc2ccc(C(F)(F)F)cc2)C(=O)N[C@@H](Cc2c[nH]c3ccccc23)C(=O)N[C@@H](CC(=O)O)C1=O [compound 1459] ({CH2CO}-[Phe(4-CF3)]WD[NHexGly]Y[Nle]NRL[Ahp(2)]PVDCG-OH; thioether N-14) | 23.4
3 | CCCCCCN1CC(=O)N[C@@H](Cc2ccc(O)cc2)C(=O)N[C@@H](CCCC)C(=O)N[C@@H](CC(N)=O)C(=O)N[C@@H](CCCNC(=N)N)C(=O)N[C@@H](CC(C)C)C(=O)N[C@@H](CCCCC)C(=O)N2CCC[C@H]2C(=O)N[C@@H](C(C)C)C(=O)N[C@@H](CO)C(=O)N[C@H](C(=O)NCC(=O)O)CSCC(=O)N[C@@H](Cc2ccc(F)cc2)C(=O)N[C@@H](Cc2ccc(O)cc2)C(=O)N[C@@H](CC(=O)O)C1=O [compound 1462] ({CH2CO}-[Phe(4-F)]YD[NHexGly]Y[Nle]NRL[Ahp(2)]PVSCG-OH; thioether N-14) | 22.2
4 | CCCCCCN1CC(=O)N[C@@H](Cc2ccc(O)cc2)C(=O)N[C@@H](CCCC)C(=O)NCC(=O)N[C@@H](CCCNC(=N)N)C(=O)N[C@@H](CC(C)C)C(=O)N[C@@H](CCCCC)C(=O)N2CCC[C@H]2C(=O)N[C@@H](C(C)C)C(=O)N[C@@H](CC(=O)O)C(=O)N[C@H](C(=O)NCC(=O)O)CSCC(=O)N[C@@H](Cc2ccc(N)cc2)C(=O)N[C@@H](Cc2ccc(O)cc2)C(=O)N[C@@H](CC(=O)O)C1=O [compound 1464] ({CH2CO}-[Phe(4-NH2)]YD[NHexGly]Y[Nle]GRL[Ahp(2)]PVDCG-OH; thioether N-14) | 31.4
5 | CCCCCCN1CC(=O)N[C@@H](Cc2ccc(O)cc2)C(=O)N[C@@H](CCCC)C(=O)N[C@H](CC(N)=O)C(=O)N[C@@H](CCCNC(=N)N)C(=O)N[C@@H](CC(C)C)C(=O)N[C@@H](CCCCC)C(=O)N2CCC[C@H]2C(=O)N[C@@H](C(C)C)C(=O)N[C@@H](CO)C(=O)N[C@H](C(=O)NCC(=O)O)CSCC(=O)N[C@@H](Cc2c[nH]c3ccccc23)C(=O)N[C@@H](Cc2ccc(O)cc2)C(=O)N[C@@H](CC(=O)O)C1=O [compound 1471] ({CH2CO}-WYD[NHexGly]Y[Nle][dN]RL[Ahp(2)]PVSCG-OH; thioether N-14) | 32.9
6 | CCCCCCN1CC(=O)N[C@@H](Cc2ccc(O)cc2)C(=O)N[C@@H](CCCC)C(=O)NCC(=O)N[C@@H](CCCNC(=N)N)C(=O)N[C@@H](CC(C)C)C(=O)N[C@@H](CCCCC)C(=O)N2CCC[C@H]2C(=O)N[C@@H](C(C)C)C(=O)N[C@@H](CC(=O)O)C(=O)N[C@H](C(=O)NCC(=O)O)CSCC(=O)N[C@@H](Cc2ccc(O)cc2)C(=O)N[C@@H](Cc2ccccc2)C(=O)N[C@@H](CC(=O)O)C1=O [compound 1472] ({CH2CO}-YFD[NHexGly]Y[Nle]GRL[Ahp(2)]PVDCG-OH; thioether N-14) | 15.5
7 | CCCCCCN1CC(=O)N[C@@H](Cc2ccc(O)cc2)C(=O)N[C@@H](CCCC)C(=O)N[C@@H](CC(N)=O)C(=O)N[C@@H](CCCNC(=N)N)C(=O)N[C@@H](CC(C)C)C(=O)N[C@@H](CCCCC)C(=O)N2CCC[C@H]2C(=O)N[C@@H](C(C)C)C(=O)N[C@@H](CO)C(=O)N[C@H](C(=O)NCC(N)=O)CSCC(=O)N[C@@H](Cc2ccc(O)cc2)C(=O)N[C@@H](Cc2ccc(O)cc2)C(=O)N[C@@H](CC(=O)O)C1=O [compound 1474] ({CH2CO}-YYD[NHexGly]Y[Nle]NRL[Ahp(2)]PVSCG-NH2; thioether N-14) | 40.4
8 | CCCCCCN1CC(=O)N[C@@H](Cc2ccc(O)cc2)C(=O)N[C@@H](CCCC)C(=O)N[C@@H](CC(N)=O)C(=O)N[C@@H](CCCNC(=N)N)C(=O)N[C@@H](CC(C)C)C(=O)N[C@@H](CCCCC)C(=O)N2CCC[C@H]2C(=O)N[C@@H](C(C)C)C(=O)N[C@@H](CC(=O)O)C(=O)N[C@H](C(=O)NCC(=O)O)CSCC(=O)N[C@@H](Cc2ccc(OCC)cc2)C(=O)N[C@@H](Cc2c[nH]c3ccccc23)C(=O)N[C@@H](CC(=O)O)C1=O [compound 1476] ({CH2CO}-Y(Et)WD[NHexGly]Y[Nle]NRL[Ahp(2)]PVDCG-OH; thioether N-14) | 36.5
9 | CCCCCCN1CC(=O)N[C@@H](Cc2ccc(O)cc2)C(=O)N[C@@H](C(C)C)C(=O)NCC(=O)N[C@@H](CCCNC(=N)N)C(=O)N[C@@H](CC(C)C)C(=O)N[C@@H](CCCCC)C(=O)N2CCC[C@H]2C(=O)N[C@@H](C(C)C)C(=O)N[C@@H](CC(=O)O)C(=O)N[C@H](C(=O)NCC(N)=O)CSCC(=O)N[C@@H](Cc2ccc(OC)cc2)C(=O)N[C@@H](Cc2ccc(O)cc2)C(=O)N[C@@H](CC(=O)O)C1=O [compound 1477] ({CH2CO}-Y(Me)YD[NHexGly]YVGRL[Ahp(2)]PVDCG-NH2; thioether N-14) | 49.2

Stronger by IC50, values ahead:

Row | IC50 [nM] | SMILES
10 | 12 | CCCCCCN1CC(=O)N[C@@H](Cc2ccc(O)cc2)C(=O)N[C@@H](C(C)C)C(=O)NCC(=O)N[C@@H](CCCNC(=N)N)C(=O)N[C@@H](CC(C)C)C(=O)N[C@@H](CCCCC)C(=O)N2CCC[C@H]2C(=O)N[C@@H](C(C)C)C(=O)N[C@@H](CC(=O)O)C(=O)N[C@H](C(=O)NCC(=O)O)CSCC(=O)N[C@@H](Cc2ccc(OC)cc2)C(=O)N[C@@H](Cc2ccc(O)cc2)C(=O)N[C@@H](CC(=O)O)C1=O [compound 1478] ({CH2CO}-Y(Me)YD[NHexGly]YVGRL[Ahp(2)]PVDCG-OH; thioether N-14)
11 | 11.6 | CCCCCCN1CC(=O)N[C@@H](Cc2ccc(O)cc2)C(=O)N[C@@H](CCCC)C(=O)N[C@@H](CC(N)=O)C(=O)N[C@@H](CCCNC(=N)N)C(=O)N[C@@H](CC(C)C)C(=O)N[C@@H](CCCCC)C(=O)N2CCC[C@H]2C(=O)N[C@@H](C(C)C)C(=O)N[C@@H](CC(=O)O)C(=O)N[C@H](C(=O)NCC(=O)O)CSCC(=O)N[C@@H](Cc2cc(F)c(F)c(F)c2)C(=O)N[C@@H](Cc2ccc(O)cc2)C(=O)N[C@@H](CC(=O)O)C1=O [compound 1457] ({CH2CO}-[Phe(3,4,5-F3)]YD[NHexGly]Y[Nle]NRL[Ahp(2)]PVDCG-OH; thioether N-14)
12 | 10.7 | C=CCOc1ccc(C[C@@H]2NC(=O)CSC[C@@H](C(=O)NCC(N)=O)NC(=O)[C@H](CC(=O)O)NC(=O)[C@H](C(C)C)NC(=O)[C@@H]3CCCN3C(=O)[C@H](CCCCC)NC(=O)[C@H](CC(C)C)NC(=O)[C@H](CCCNC(=N)N)NC(=O)CNC(=O)[C@H](C(C)C)NC(=O)[C@H](Cc3ccc(O)cc3)NC(=O)CN(CCCCCC)C(=O)[C@H](CC(=O)O)NC(=O)[C@H](Cc3ccc(O)cc3)NC2=O)cc1 [compound 1475] ({CH2CO}-Y(Allyl)YD[NHexGly]YVGRL[Ahp(2)]PVDCG-NH2; thioether N-14)
13 | 8.7 | CCCCCCN1CC(=O)N[C@@H](Cc2ccc(O)cc2)C(=O)N[C@@H](CC(C)C)C(=O)N[C@@H](CC(N)=O)C(=O)N[C@@H](CCCNC(=N)N)C(=O)N[C@@H](CC(C)C)C(=O)N[C@@H](CCCCC)C(=O)N2CCC[C@H]2C(=O)N[C@@H](C(C)C)C(=O)N[C@@H](C(C)C)C(=O)N[C@H](C(=O)NCC(=O)O)CSCC(=O)N[C@@H](Cc2ccc(C(F)(F)F)cc2)C(=O)N[C@@H](Cc2c[nH]c3ccccc23)C(=O)N[C@@H](CC(=O)O)C1=O [compound 1460] ({CH2CO}-[Phe(4-CF3)]WD[NHexGly]YLNRL[Ahp(2)]PVVCG-OH; thioether N-14)
14 | 5 | CCCCCCN1CC(=O)N[C@@H](Cc2ccc(O)cc2)C(=O)N[C@@H](CCCC)C(=O)N[C@@H](CC(N)=O)C(=O)N[C@@H](CCCNC(=N)N)C(=O)N[C@@H](CC(C)C)C(=O)N[C@@H](CCCCC)C(=O)N2CCC[C@H]2C(=O)N[C@@H](C(C)C)C(=O)N[C@@H](CC(=O)O)C(=O)N[C@H](C(=O)NCC(=O)O)CSCC(=O)N[C@@H](Cc2ccc(C(F)(F)F)cc2)C(=O)N[C@@H](Cc2ccc(O)cc2)C(=O)N[C@@H](CC(=O)O)C1=O [compound 1461] ({CH2CO}-[Phe(4-CF3)]YD[NHexGly]Y[Nle]NRL[Ahp(2)]PVDCG-OH; thioether N-14)
15 | 3.2 | CCCCCCN1CC(=O)N[C@@H](Cc2ccc(O)cc2)C(=O)N[C@@H](CCCC)C(=O)N[C@@H](CC(N)=O)C(=O)N[C@@H](CCCNC(=N)N)C(=O)N[C@@H](CC(C)C)C(=O)N[C@@H](CCCCC)C(=O)N2CCC[C@H]2C(=O)N[C@@H](C(C)C)C(=O)N[C@@H](CO)C(=O)N[C@H](C(=O)NCC(=O)O)CSCC(=O)N[C@@H](Cc2ccc(O)cc2)C(=O)N[C@@H](Cc2ccc(O)cc2)C(=O)N[C@@H](CC(=O)O)C1=O [compound 1473] ({CH2CO}-YYD[NHexGly]Y[Nle]NRL[Ahp(2)]PVSCG-OH; thioether N-14)
